Results: the supplement of paper PMC5908809

Tests used:
[1] = tested on: normal NK cells expanded with K562-aAPC; assay: percent inhibition of viability; higher = more inhibition; settings: 72 h, IL-2 2.5 ng/mL
Protocol: (§1)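 Drug sensitivity and resistance testing on K562-aAPC-expanded normal NK cells: 5 concentrations (10-fold steps over a 10,000-fold range), 72 h at 37 °C, viability by CellTiter-Glo normalised to DMSO and benzethonium chloride controls; DSS from the fitted curve.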

[2] = tested on: DERL-7 (IL-2 2.5 ng/mL); assay: as above; settings: 72 h
[3] = tested on: IMC-1 (IL-2 20 ng/mL); assay: as above; settings: 72 h
[4] = tested on: KAI3 (IL-2 2.5 ng/mL); assay: as above; settings: 72 h
[5] = tested on: KHYG-1 (IL-2 2.5 ng/mL); assay: as above; settings: 72 h
[6] = tested on: NK-92 (IL-2 2.5 ng/mL); assay: as above; settings: 72 h
[7] = tested on: NK-YS (IL-2 2.5 ng/mL); assay: as above; settings: 72 h
[8] = tested on: NKL (IL-2 2.5 ng/mL); assay: as above; settings: 72 h
[9] = tested on: SNK-6 (IL-2 2.5 ng/mL); assay: as above; settings: 72 h
[10] = tested on: YT (IL-2 2.5 ng/mL); assay: as above; settings: 72 h
[11] = tested on: normal primary NK cells, pool 1 (3 donors) (IL-2 2.5 ng/mL); assay: as above; settings: 72 h
[12] = tested on: normal primary NK cells, pool 1 (3 donors), resting (IL-2 0 ng/mL); assay: as above; settings: 72 h
[13] = tested on: normal primary NK cells, pool 2 (3 donors) (IL-2 2.5 ng/mL); assay: as above; settings: 72 h
[14] = tested on: normal primary NK cells, pool 3 (3 donors) (IL-2 2.5 ng/mL); assay: as above; settings: 72 h
[15] = tested on: normal NK cells expanded with K562-aAPC; assay: drug sensitivity score (DSS) (DSS units); higher = more sensitive; extreme values may be limits of the assay; settings: 72 h; IL-2 2.5 ng/mL
Protocol: as §1

[16] = tested on: DERL-7 (IL-2 2.5 ng/mL); assay: as above; settings: 72 h
[17] = tested on: IMC-1 (IL-2 20 ng/mL); assay: as above; settings: 72 h
[18] = tested on: KAI3 (IL-2 2.5 ng/mL); assay: as above; settings: 72 h
[19] = tested on: KHYG-1 (IL-2 2.5 ng/mL); assay: as above; settings: 72 h
[20] = tested on: NK-92 (IL-2 2.5 ng/mL); assay: as above; settings: 72 h
[21] = tested on: NK-YS (IL-2 2.5 ng/mL); assay: as above; settings: 72 h
[22] = tested on: NKL (IL-2 2.5 ng/mL); assay: as above; settings: 72 h
[23] = tested on: SNK-6 (IL-2 2.5 ng/mL); assay: as above; settings: 72 h
[24] = tested on: YT (IL-2 2.5 ng/mL); assay: as above; settings: 72 h
[25] = tested on: normal primary NK cells, pool 1 (3 donors) (IL-2 2.5 ng/mL); assay: as above; settings: 72 h
[26] = tested on: normal primary NK cells, pool 1 (3 donors), resting (IL-2 0 ng/mL); assay: as above; settings: 72 h
[27] = tested on: normal primary NK cells, pool 2 (3 donors) (IL-2 2.5 ng/mL); assay: as above; settings: 72 h
[28] = tested on: normal primary NK cells, pool 3 (3 donors) (IL-2 2.5 ng/mL); assay: as above; settings: 72 h

O=C1CN2Cc3c(ccc(Cl)c3Cl)N=C2N1 [Anagrelide] (max concentration tested 10000 nM)
percent inhibition of viability [%]
Settings | 1 nM | 10 nM | 100 nM | 1000 nM | 10000 nM
[1] | -10.7 | -8.47 | -7.13 | 1.09 | 4.94
[2] | 0.58 | -15.8 | 5.22 | -2.15 | -3.54
[3] | -2 | -2.1 | 0.73 | -7.98 | 0.69
[4] | -3.01 | -16.8 | 2.67 | 7.81 | 26.7
[5] | -5.21 | -5.67 | -5.27 | 2.55 | 2.12
[6] | -16.3 | -4.98 | 5.49 | 11 | 18.2
[7] | -1.23 | -6.42 | 0.98 | -1.47 | 9.94
[8] | -8 | -3.63 | 5.32 | 5.47 | 9.73
[9] | -14.4 | -27.6 | -25 | 10.6 | 16.6
[10] | -4.72 | -11.3 | -2.78 | -6.4 | 13
[11] | -7.17 | 12.1 | 9.62 | 3.68 | 6.66
[12] | -14.4 | 8.37 | 10.8 | 4.74 | 9.32
[13] | -5.09 | 5.68 | 10.3 | 2.48 | 5.2
[14] | -7.45 | -4.06 | -2.15 | -4.72 | -5.66

Settings | drug sensitivity score
[15] | 0
[16] | 0
[17] | 0
[18] | 2.01
[19] | 0
[20] | 1.23
[21] | 0
[22] | 0
[23] | 1.18
[24] | 0.03
[25] | 0
[26] | 0.58
[27] | 0
[28] | 0
